Results as given in ChEMBL document CHEMBL5291721, “A preclinical secondary pharmacology resource illuminates target-adverse drug reaction associations of marketed drugs” (Nat Commun, 2023).

Legend:
[1] = molecular target: T1, 5-hydroxytryptamine receptor 2C (Homo sapiens, UniProt P28335)
T1 sequence (P28335 whole entry): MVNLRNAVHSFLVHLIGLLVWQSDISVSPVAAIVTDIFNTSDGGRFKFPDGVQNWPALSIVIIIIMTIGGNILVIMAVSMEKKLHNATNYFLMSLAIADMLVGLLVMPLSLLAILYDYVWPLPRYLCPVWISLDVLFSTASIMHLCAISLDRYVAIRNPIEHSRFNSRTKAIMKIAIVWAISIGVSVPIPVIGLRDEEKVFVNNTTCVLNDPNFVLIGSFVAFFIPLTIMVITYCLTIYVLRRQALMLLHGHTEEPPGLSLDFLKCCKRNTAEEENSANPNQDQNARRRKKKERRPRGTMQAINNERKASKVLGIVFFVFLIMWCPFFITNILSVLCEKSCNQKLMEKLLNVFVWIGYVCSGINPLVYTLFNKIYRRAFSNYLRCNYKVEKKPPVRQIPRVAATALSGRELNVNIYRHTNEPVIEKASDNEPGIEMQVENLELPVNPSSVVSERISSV

[2] = molecular target: T2, Alpha-2C adrenergic receptor (Homo sapiens, UniProt P18825); assay type: functional
T2 sequence (P18825 whole entry): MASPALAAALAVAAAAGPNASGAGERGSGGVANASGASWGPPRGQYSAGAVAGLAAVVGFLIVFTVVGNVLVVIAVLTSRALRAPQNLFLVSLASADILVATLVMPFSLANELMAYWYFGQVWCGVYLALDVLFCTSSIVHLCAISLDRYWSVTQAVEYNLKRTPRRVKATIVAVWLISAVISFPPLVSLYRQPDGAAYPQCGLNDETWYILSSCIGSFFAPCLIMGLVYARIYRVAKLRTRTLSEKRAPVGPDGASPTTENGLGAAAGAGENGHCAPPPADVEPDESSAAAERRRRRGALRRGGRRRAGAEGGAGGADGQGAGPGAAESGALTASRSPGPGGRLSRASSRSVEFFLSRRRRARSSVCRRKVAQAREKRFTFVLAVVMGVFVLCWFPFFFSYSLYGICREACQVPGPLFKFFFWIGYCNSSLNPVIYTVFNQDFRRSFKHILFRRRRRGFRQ

[3] = molecular target: T3, Amine oxidase [flavin-containing] A (Homo sapiens, UniProt P21397); assay type: functional
T3 sequence (P21397 whole entry): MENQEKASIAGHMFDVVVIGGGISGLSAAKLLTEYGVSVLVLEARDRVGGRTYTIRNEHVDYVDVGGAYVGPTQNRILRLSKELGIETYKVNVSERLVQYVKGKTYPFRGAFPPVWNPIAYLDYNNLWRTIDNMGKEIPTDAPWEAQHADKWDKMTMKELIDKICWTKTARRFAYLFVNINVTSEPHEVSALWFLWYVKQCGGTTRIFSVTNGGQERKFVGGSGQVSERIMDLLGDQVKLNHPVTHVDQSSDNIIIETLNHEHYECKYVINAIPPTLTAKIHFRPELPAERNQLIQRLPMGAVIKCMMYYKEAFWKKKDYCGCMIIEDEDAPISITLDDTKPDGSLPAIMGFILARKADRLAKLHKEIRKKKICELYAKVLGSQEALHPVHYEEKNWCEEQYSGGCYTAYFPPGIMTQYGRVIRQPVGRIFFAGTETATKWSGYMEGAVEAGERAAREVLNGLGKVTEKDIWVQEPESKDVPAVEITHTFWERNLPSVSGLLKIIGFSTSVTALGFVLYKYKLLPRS

[4] = molecular target: T4, Muscarinic acetylcholine receptor M2 (Homo sapiens, UniProt P08172); assay type: functional, cell-based
T4 sequence (P08172 whole entry): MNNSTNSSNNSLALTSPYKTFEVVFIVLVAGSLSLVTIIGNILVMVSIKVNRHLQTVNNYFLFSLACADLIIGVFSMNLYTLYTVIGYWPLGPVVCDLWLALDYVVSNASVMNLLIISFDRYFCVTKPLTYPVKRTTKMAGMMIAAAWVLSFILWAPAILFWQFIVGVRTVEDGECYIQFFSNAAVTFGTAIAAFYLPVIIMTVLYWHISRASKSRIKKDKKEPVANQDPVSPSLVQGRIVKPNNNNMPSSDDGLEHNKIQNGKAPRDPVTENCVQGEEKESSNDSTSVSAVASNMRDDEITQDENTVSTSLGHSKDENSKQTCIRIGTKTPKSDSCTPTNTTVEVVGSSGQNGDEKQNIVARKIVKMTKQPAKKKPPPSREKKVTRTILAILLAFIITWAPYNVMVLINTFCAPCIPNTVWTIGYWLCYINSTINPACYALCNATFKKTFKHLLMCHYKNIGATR

Adenosine receptor A1 = molecular target: T5, Adenosine receptor A1 (Homo sapiens, UniProt P30542)
T5 sequence (P30542 whole entry): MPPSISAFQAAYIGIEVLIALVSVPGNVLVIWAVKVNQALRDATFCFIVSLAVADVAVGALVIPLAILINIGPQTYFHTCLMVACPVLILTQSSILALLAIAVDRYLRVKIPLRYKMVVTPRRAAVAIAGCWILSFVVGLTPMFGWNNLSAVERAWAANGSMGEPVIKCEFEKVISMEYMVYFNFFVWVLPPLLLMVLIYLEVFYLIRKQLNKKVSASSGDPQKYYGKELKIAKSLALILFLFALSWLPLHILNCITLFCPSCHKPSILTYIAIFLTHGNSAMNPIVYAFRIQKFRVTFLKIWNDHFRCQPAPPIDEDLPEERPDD

Vasopressin V2 receptor = Vasopressin V2 receptor (Homo sapiens, UniProt P30518)
Sequence of Vasopressin V2 receptor (P30518 whole entry): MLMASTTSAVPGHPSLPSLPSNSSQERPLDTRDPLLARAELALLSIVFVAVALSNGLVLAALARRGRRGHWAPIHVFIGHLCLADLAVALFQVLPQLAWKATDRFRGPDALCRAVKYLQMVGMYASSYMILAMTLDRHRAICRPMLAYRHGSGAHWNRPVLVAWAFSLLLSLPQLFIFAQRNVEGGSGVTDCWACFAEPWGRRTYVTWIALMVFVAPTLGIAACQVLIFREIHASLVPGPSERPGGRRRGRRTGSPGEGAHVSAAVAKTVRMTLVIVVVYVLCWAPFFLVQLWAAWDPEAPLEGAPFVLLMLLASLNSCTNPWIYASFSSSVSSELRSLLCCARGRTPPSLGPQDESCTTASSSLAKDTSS
Note: assay procedure not described here.

Row | Compound | AC50 [1] [µM] | AC50 [2] [µM] | AC50 [3] [µM] | AC50 [4] [µM] | AC50 (Adenosine receptor A1) [µM] | AC50 (Vasopressin V2 receptor) [µM]
1 | CC(=N)N1CC[C@H](SC2=C(C(=O)O)N3C(=O)[C@H]([C@@H](C)O)[C@H]3C2)C1 | > 300 | > 300 | > 300 | > 300 | > 300 | 
2 | CC(/C=C1\SC(=S)N(CC(=O)O)C1=O)=C\c1ccccc1 | 6.4 | 8.2 | > 30 | > 30 | 15 | > 30
3 | CC1(C)S[C@@H]2[C@H](NC(=O)[C@H](N)c3ccc(O)cc3)C(=O)N2[C@H]1C(=O)O [AMOXICILLIN] | > 30 | > 30 | > 30 | > 30 | > 30 | > 30
4 | O=C1CN2Cc3c(ccc(Cl)c3Cl)N=C2N1 [ANAGRELIDE] | > 30 | > 10 | > 10 | > 10 | > 30 | > 30
5 | CNCC[C@@H](Oc1ccccc1C)c1ccccc1 [ATOMOXETINE] |  | > 30 | > 30 |  | > 30 | > 30
6 | CCc1oc2ccccc2c1C(=O)c1cc(Br)c(O)c(Br)c1 [BENZBROMARONE] | > 30 | 26 | > 30 | 14 | > 30 | > 30
7 | C=C(C)[C@@H]1CCC(C)=C[C@H]1c1c(O)cc(CCCCC)cc1O [CANNABIDIOL] | > 30 | > 30 | > 30 | 8 | > 30 | 
8 | CO/N=C(\C(=O)N[C@@H]1C(=O)N2C(C(=O)O)=C(COC(N)=O)CS[C@H]12)c1ccco1 [CEFUROXIME] | > 30 | > 30 | > 30 | > 30 | > 30 | > 30
9 | [H]/N=C(\N/C(=N/[H])NCCCCCCNC(=N)NC(=N)Nc1ccc(Cl)cc1)Nc1ccc(Cl)cc1 [CHLORHEXIDINE] | 5.4 | 1.8 | > 10 |  | > 30 | 3.9
10 | Clc1cccc(Cl)c1N=C1NCCN1 [CLONIDINE] | > 30 |  | > 10 | > 10 | > 30 | > 30
11 | COC(=O)[C@H](c1ccccc1Cl)N1CCc2sccc2C1 [CLOPIDOGREL] | > 30 | > 30 | > 30 | > 30 | > 30 | > 30
12 | CN1C[C@H](C(=O)N[C@]2(C)O[C@@]3(O)[C@@H]4CCCN4C(=O)[C@H](Cc4ccccc4)N3C2=O)C[C@@H]2c3cccc4[nH]cc(c34)C[C@H]21 [DIHYDROERGOTAMINE] | 0.5 |  | > 10 | > 10 | > 30 | > 30
13 | CNCC[C@H](Oc1cccc2ccccc12)c1cccs1 [DULOXETINE] | 13 | 1.4 | > 10 | > 10 | > 30 | > 30
14 | CC1(C)O[C@@H]2C[C@H]3[C@@H]4C[C@H](F)C5=CC(=O)C=C[C@]5(C)[C@H]4[C@@H](O)C[C@]3(C)[C@]2(C(=O)CO)O1 [FLUNISOLIDE] | > 30 | > 30 | > 30 | > 30 | > 30 | 
15 | CCC(=O)O[C@@H](O[P@](=O)(CCCCc1ccccc1)CC(=O)N1C[C@H](C2CCCCC2)C[C@H]1C(=O)O)C(C)C [FOSINOPRIL] | > 30 | > 30 | > 30 | > 30 |  | 
16 | Nc1nc(O)c2ncn(COC(CO)CO)c2n1 [GANCICLOVIR] | > 30 | > 30 | > 30 | > 30 | > 30 | > 30
17 | C[C@H]1Oc2cc(cnc2N)-c2c(nn(C)c2C#N)CN(C)C(=O)c2ccc(F)cc21 [LORLATINIB] | > 30 | > 30 | > 30 | > 30 | > 30 | 
18 | Cc1cnc(NC(=O)C2=C(O)c3ccccc3S(=O)(=O)N2C)s1 [MELOXICAM] | > 10 | > 10 | > 10 | > 10 | > 30 | > 30
19 | CC[C@@H](CO)NC(=O)[C@@H]1C=C2c3cccc4[nH]cc(c34)C[C@H]2N(C)C1 [METHYLERGONOVINE] | 0.12 | 1.7 | > 30 | > 30 | > 30 | > 30
20 | CNCCC=C1c2ccccc2CCc2ccccc21 [NORTRIPTYLINE] |  |  | > 30 | > 30 | > 30 | > 30
21 | CN(C)c1cc(CNCC(C)(C)C)c(O)c2c1C[C@H]1C[C@H]3[C@H](N(C)C)C(O)=C(C(N)=O)C(=O)[C@@]3(O)C(O)=C1C2=O [OMADACYCLINE] | > 30 | > 30 | > 30 | > 30 | > 30 | > 30
22 | CNC(=O)c1cc(Oc2ccc(NC(=O)Nc3ccc(Cl)c(C(F)(F)F)c3)c(F)c2)ccn1 [REGORAFENIB] |  | > 30 | 9.05 | > 30 |  | 
23 | CCOc1cc(CC(=O)N[C@@H](CC(C)C)c2ccccc2N2CCCCC2)ccc1C(=O)O [REPAGLINIDE] | > 30 | > 30 | > 30 | > 30 | > 30 | 
24 | NC(=O)c1ncn([C@@H]2O[C@H](CO)[C@@H](O)[C@H]2O)n1 [RIBAVIRIN] | > 30 | > 10 | > 10 | > 10 |  | > 10
25 | CCCN(CCc1cccs1)[C@H]1CCc2c(O)cccc2C1 [ROTIGOTINE] | > 30 | 0.4 | > 30 | > 10 | > 30 | 
26 | CC[C@H]1OC(=O)[C@H](C)[C@@H](O[C@H]2C[C@@](C)(OC)[C@@H](O)[C@H](C)O2)[C@H](C)[C@@H](O[C@@H]2O[C@H](C)C[C@H](N(C)C)[C@H]2O)[C@](C)(O)C[C@@H](C)/C(=N\OCOCCOC)[C@H](C)[C@@H](O)[C@]1(C)O [ROXITHROMYCIN] | > 30 | > 30 | > 30 | > 30 | > 30 | 
27 | Cn1c(=O)c2[nH]cnc2n(C)c1=O [THEOPHYLLINE] | > 30 | > 10 | > 10 | > 10 |  | > 30
28 | CN1CCN(CCCN2c3ccccc3Sc3ccc(S(=O)(=O)N(C)C)cc32)CC1 [THIOPROPERAZINE] | 6.14 | 2.6 | > 30 | > 30 |  | 
